Measured values taken from patent US7049138B2, “Epitope-tagged beta-amyloid precursor protein and DNA encoding the same” (Bristol-Myers Squibb Company, priority 1999, dated 2006).

Test system: HA 11 A-beta (1-40) accumulation in HEK 293/HA 11 beta-APP 695 cells
Assay: Accumulation of HA 11 A-beta (1-40) in HEK 293/HA 11 beta-APP 695 conditioned medium, position 40-specific ELISA
Format: cell-based, human
Conditions: 96-well, serum-free medium with 0.2% BSA, 16 hours, dose-response, versus DMSO vehicle
Procedure: HEK 293/HA 11 beta-APP 695 cells were plated at confluence in 96-well plates and the indicated dose-response of either MDL 28170 (panel A), or Brefeldin A (panel B) was added for 16 hours. The accumulation of HA 11 A-beta (1-40) (position 40-specific antibody; QCB) was determined as in FIG. 5. Results are expressed as percentage inhibition of HA 11 A-beta (1-40) accumulation in comparison to wells incubated with vehicle (dimethyl sulfoxide, DMSO) alone.
Panel A: Immulon 2 microtiter wells were coated with mAB anti-HA 11 (5 μg/mL in PBS, 4° C., overnight), washed with PBS and blocked with 5% BSA in PBS. […] The change of absorbance of duplicate wells was determined at […] and results corrected for binding of antibodies to wells in the absence of peptide. […]
HEK 293/HA 11 beta-APP 695 cells were plated in 96-well tissue culture dishes in serum-free medium containing 0.2% BSA (1×10^6 cells/cm^2). The conditioned medium was harvested at the indicated times and analyzed for the presence of HA 11 A-beta position 40, as in example 4. HA 11 A-beta polypeptides ending at position 42 were detected in a similar ELISA system. […] Bound HA 11 A-beta 42 was detected with biotin-labeled mAB 108 (specific for the neo-epitope generated upon cleavage of beta-APP by […]), followed by HRP-labeled streptavidin and TMB substrate. […]

MDL 28170
HA 11 A-beta accumulation in conditioned medium: decrease in the HA 11 A-beta accumulation

C[C@H]1CCC/C=C/[C@@H]2C[C@H](O)C[C@H]2[C@H](O)/C=C/C(=O)O1 [brefeldin A, Brefeldin A]
HA 11 A-beta accumulation in conditioned medium: decrease in the HA 11 A-beta accumulation
